Experimental data reported in publication PMC11117716 (Biomolecules, 2024).

Legend:
[1] = Plasma pharmacokinetics after oral Posiphen in CD-1 mice (LC-MS/MS); conditions: for Mean plasma concentration: CD-1 mice, Posiphen 65 mg/kg
Method: The animal PKs were taken from multiple GLP toxicology studies, biomarker studies, and efficacy studies. […] Sample size (n) represents the number of animals at each time point of sample collection. […] The dose volume was determined according to animals’ weight collected on the dosing day.
In mice, blood samples were collected via the saphenous vein or other suitable blood collection site into a microcentrifuge tube containing the anti-coagulant K2-EDTA on wet ice and processed for plasma. For samples collected within the first hour of dosing, ±1 min is acceptable, while for all other timepoints, samples were taken within 5% of the scheduled time and are not considered as protocol deviations. Plasma samples were centrifuged (3200× g for 10 min at 4 °C) within an hour of collection. CSF samples were collected with 3 μL volume per time point, frozen on dry ice, and stored at −60 °C for further analysis. For brain collection in mice, animals were euthanized using CO2 inhalation. Whole brain was collected, washed in cold saline, dried, and homogenized immediately […]. Homogenizing buffer MeOH/15 mM PBS (1:2, v:v) was used at a ratio of 1:9 (1 g of tissue with 9 mL of buffer; the dilution ratio is 10).
(§1) In humans, the bioanalytical method was performed in accordance with current FDA, Industry Guidelines, and OECD Principles. […] The sample analysis was conducted in accordance with current GCP and GLP principles, and the results were presented for pharmacokinetic profiling (Absorption Systems, Exton, PA, USA). Calibration ranges for each analyte ranged from 1000 ng/mL to 1 ng/mL (or ng/g for brain) in plasma, brain, and CSF matrices. The detection limit was 0.025 ng/mL. The following PK parameters were collected for the purpose of this manuscript: maximum concentration (Cmax), time to maximum drug concentration (Tmax), half-life (T1/2), and the Area Under the Curve (AUC).
Blood plasma samples were collected at various time points within the initial 8 h following administration (6 h for humans). Plasma concentrations (ng/mL) were measured over the 8 h observation window to characterize the maximum concentration (Cmax), the time to peak drug concentration (Tmax), the half-life (T1/2), and the Area Under the Curve (AUC).

[2] = Plasma pharmacokinetics after oral Posiphen in Sprague Dawley rats (LC-MS/MS); type: in vivo, rat
Method: In rats and dogs, blood samples were centrifuged, and the resultant plasma was separated, and 200 µL (rat) or 400 µL (dog) of plasma was transferred to uniquely labeled pre-chilled polypropylene tubes containing 5 µL (rat) or 10 µL (dog) Dichlorvos spiking solution (nominal concentration of 0.82 mg/mL in MeOH/Water, 20/80, v/v).
(§2) The detection limit was 0.025 ng/mL.

[3] = Plasma pharmacokinetics after oral Posiphen in humans (LC-MS/MS); type: in vivo, human; conditions: for Tmax: Posiphen PO 80 mg/day (1.1 mg/kg), n = 4
Method: (§3) This paper describes data from multiple studies.
Samples were frozen and then stored at −80 °C.
as §2

[4] = clinical; conditions: human, in vivo
Method: This paper describes data from multiple studies. The healthy volunteers’ data come from the single ascending and multiple ascending dose study, whereas Alzheimer’s and Parkinson’s patients are represented by the MCI NCT01072812 study, ADCS NCT02925650 study, and AD/PD NCT04524351 study. The evaluations are based on a sample size of n = 4 for each time point.
In humans, plasma and lumbar CSF samples were collected via an indwelling catheter over 12 h (at 0, 1, 1.5, 2, 3, 4, 6, 8, and 12 h) initiated at the same time of day, 1 day prior to the start of dosing, to obtain time-dependent baseline control data, and then at the exact same times immediately after the last dose was administered. Samples were frozen and then stored at −80 °C.
as §1

[5] = Posiphen pharmacokinetics compared across species (mouse, rat, dog, human); type: in vivo
Method: as §3, §2

[6] = system: neurotoxic aggregating proteins; conditions: cited from earlier work
[7] = both, CD-1, mouse, in vivo, po, 65 mg/kg
[8] = both sexes, Sprague Dawley, rat, in vivo, 40 mg/kg
[9] = both sexes, Sprague Dawley, rat, in vivo, po, 40 mg/kg

CN1CC[C@]2(C)c3cc(OC(=O)Nc4ccccc4)ccc3N(C)C12.O=C(O)C(O)C(O)C(=O)O (stereo partly drawn) [Posiphen, (3aR)-1,3a, 8-trimethyl-1,2,3,3a, 8,8a-hexahydropyrrolo (2,3-b) indol-5-yl phenylcarbamate tartrate]
Mean plasma concentration ([1]; 0.25 h): 937 ng/mL | Mean plasma concentration ([1]; 0.5 h): 939 ng/mL | Mean plasma concentration ([1]; 1 h): 610 ng/mL | Mean plasma concentration ([1]; 2 h): 571 ng/mL | Mean plasma concentration ([1]; 4 h): 19.5 ng/mL | AUC(0-t) ([1]; Table 2, mouse plasma, oral Posiphen): 1707 ng·h/mL | AUC(0-t) [1, 7]: 1710 ng·h/mL | Cmax [1, 7]: 939 ng/mL | half-life ([1]; both, CD-1, mouse, in vivo, po, 65 mg/kg, T1/2, mouse plasma, Posiphen PO 65 mg/kg, n = 7): 0.56 h | Tmax ([1]; both, CD-1, mouse, in vivo, po, 65 mg/kg, Tmax, mouse plasma, Posiphen PO 65 mg/kg, n = 7): < 1 h | T1/2 ([1]; mouse plasma, Posiphen PO 65 mg/kg, n = 7, 65 mg/kg): 0.562 h | concentration at 0.25 h [2, 8]: 1090 ng/mL | concentration at 1 h [2, 8]: 771 ng/mL | concentration at 2 h [2, 8]: 381 ng/mL | concentration at 4 h [2, 8]: 243 ng/mL | concentration at 8 h [2, 8]: 234 ng/mL | Cmax [2, 9]: 1180 ng/mL | half-life [2, 9]: 1.03 h | Tmax ([2]; both sexes, Sprague Dawley, rat, in vivo, po, 40 mg/kg, rat plasma, Posiphen PO 40 mg/kg, n = 6): < 1 h | AUC(0-t) ([2]; both sexes, Sprague Dawley, rat, in vivo, po, 40 mg/kg, read-out: AUC (0–8 h)): 1140 ng·h/mL | Primary compound in plasma ([2]; rat plasma): primary compound | Primary compound in plasma ([3]; human plasma): primary compound | Tmax ([3]; human plasma): 1.45 h | Cmax ([3]; human, in vivo, po): 117 ng/mL | Cmax ([3]; human, in vivo, po, 1.1 mg/kg): 120 ng/mL | Tmax ([3]; human, in vivo, po, 1.1 mg/kg, human plasma, read-out: Tmax): 1 to 2 h | AUC(0-t) ([3]; human, in vivo, po, 1.1 mg/kg, read-out: AUC (0–8 h)): 310 ng·h/mL | AUC(0-t) ([3]; human, in vivo, po, read-out: AUC (0-t)): 565 ng·h/mL | Kp [4]: 0.02 | half-life [4]: > 12 h | AUC(0-t) ([4]; po): 20.7 ng·h/mL | Cmax ([4]; po): 2.23 ng/mL | T1/2 ([4]; po): 3 h | Tmax ([4]; po): 17.26 h | Tmax (time of Cmax) ([4]; po): 3 h | half-life ([5]; CSF or brain, oral): > 12 h | Time to peak ([5]; all analyzed species: mouse, rat, dog, human): ≤ 2 h | TINAP activity [6]: have TINAP
